Assay results taken from ChEMBL document CHEMBL1201862, “PubChem BioAssay data set” (2004).
Calls of active or inactive are those of the source.

Key:
Cytochrome P450 3A4 = Cytochrome P450 3A4 (Homo sapiens, UniProt P08684);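 note: CYP3A4 tested as one member of a cytochrome P450 panel screen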
Cytochrome P450 1A2 = target: T1, Cytochrome P450 1A2 (Homo sapiens, UniProt P05177);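 note: PubChem cytochrome P450 panel assay, CYP1A2 panel member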
T1 sequence (P05177 whole entry): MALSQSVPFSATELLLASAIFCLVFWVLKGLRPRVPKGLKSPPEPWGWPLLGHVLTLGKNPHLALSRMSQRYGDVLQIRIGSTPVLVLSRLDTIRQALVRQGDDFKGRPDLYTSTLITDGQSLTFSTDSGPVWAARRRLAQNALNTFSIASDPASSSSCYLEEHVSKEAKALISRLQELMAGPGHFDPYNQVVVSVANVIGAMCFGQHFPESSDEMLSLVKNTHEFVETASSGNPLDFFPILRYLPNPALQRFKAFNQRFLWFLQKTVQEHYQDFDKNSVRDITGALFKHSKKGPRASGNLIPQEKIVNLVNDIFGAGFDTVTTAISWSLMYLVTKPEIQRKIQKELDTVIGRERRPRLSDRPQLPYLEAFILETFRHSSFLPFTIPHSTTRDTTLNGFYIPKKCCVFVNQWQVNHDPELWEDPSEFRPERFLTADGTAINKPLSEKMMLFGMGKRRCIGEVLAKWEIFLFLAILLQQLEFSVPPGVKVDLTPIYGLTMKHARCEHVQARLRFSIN

[1] = target: T2, Corticotropin-releasing factor receptor 2/Corticotropin-releasing factor-binding protein (Homo sapiens, UniProt P24387+Q13324); assay: activators of CRF receptor 2 with binding protein – uHTS hits, confirmation (AID 602473); type: functional; conditions: read-out: EC50_Mean
T2 sequence (Q13324 whole entry): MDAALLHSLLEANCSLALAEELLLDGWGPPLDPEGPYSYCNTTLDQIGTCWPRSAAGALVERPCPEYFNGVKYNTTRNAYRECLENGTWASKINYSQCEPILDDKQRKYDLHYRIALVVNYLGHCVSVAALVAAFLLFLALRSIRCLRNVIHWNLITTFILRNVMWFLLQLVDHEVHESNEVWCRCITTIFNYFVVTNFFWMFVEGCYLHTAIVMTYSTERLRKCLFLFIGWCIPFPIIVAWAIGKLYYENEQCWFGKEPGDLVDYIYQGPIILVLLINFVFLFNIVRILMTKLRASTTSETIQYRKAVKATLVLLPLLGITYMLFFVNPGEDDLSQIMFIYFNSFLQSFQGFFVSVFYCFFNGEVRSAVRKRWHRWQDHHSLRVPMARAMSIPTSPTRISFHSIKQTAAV
T2 sequence (P24387 whole entry): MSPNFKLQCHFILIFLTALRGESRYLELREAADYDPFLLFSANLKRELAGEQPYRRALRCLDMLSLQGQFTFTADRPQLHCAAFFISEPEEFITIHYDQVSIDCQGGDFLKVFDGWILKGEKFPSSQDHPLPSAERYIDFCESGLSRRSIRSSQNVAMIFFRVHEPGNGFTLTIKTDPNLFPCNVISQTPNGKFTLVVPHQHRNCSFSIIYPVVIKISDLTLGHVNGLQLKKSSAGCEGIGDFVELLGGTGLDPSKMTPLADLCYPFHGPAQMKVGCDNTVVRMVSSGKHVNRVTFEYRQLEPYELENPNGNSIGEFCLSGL

Cytochrome P450 2C9 = Cytochrome P450 2C9 (Homo sapiens, UniProt P11712)
Cytochrome P450 2D6 = Cytochrome P450 2D6 (Homo sapiens, UniProt P10635);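 note: CYP2D6 member of a cytochrome P450 panel assay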
Cytochrome P450 2C19 = Cytochrome P450 2C19 (Homo sapiens, UniProt P33261); assay: Cytochrome panel assay with activity outcomes. Panel member name: p450-cyp2c19 Compounds with AC50 equal or less than 10 uM are considered active; type: functional
[2] = HEp-2 cell cytotoxicity, dose response, cytotoxicity control for RSV inhibitor project, HTS (AID 2410); type: functional; conditions: human respiratory syncytial virus
cells = type: functional
[3] = Luminescence Cell-Based Dose Response HTS to Identify Activators of Luciferase Translation or Activity in H4 […] Cells. [Related pubchem assays: 1829 (Project Summary), 1814 (Primary HTS)]; type: functional
H4 = assay: Luminescence Cell-Based Dose Response HTS to Identify Activators of 5'UTR Stem-Loop Driven Prion Protein mRNA Translation in H4 Neuroglioblastoma Cells. [Related pubchem assays: 1829 (Project Summary), 1814 (Primary HTS)]; type: functional; conditions: Homo sapiens

Cytochrome P450 2C9, sequence (P11712 whole entry): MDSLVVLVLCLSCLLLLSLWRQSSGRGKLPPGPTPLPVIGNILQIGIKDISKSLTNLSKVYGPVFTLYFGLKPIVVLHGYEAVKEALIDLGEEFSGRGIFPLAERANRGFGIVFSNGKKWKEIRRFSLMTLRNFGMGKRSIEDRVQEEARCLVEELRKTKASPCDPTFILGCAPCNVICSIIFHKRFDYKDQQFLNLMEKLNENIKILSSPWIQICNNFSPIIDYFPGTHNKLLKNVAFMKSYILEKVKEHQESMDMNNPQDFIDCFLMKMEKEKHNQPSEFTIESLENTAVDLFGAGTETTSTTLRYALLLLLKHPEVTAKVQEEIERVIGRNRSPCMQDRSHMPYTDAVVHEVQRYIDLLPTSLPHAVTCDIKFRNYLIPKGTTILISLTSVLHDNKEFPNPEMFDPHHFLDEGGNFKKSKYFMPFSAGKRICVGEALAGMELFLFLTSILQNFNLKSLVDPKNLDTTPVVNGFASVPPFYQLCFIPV
Cytochrome P450 2C19, sequence (P33261 whole entry): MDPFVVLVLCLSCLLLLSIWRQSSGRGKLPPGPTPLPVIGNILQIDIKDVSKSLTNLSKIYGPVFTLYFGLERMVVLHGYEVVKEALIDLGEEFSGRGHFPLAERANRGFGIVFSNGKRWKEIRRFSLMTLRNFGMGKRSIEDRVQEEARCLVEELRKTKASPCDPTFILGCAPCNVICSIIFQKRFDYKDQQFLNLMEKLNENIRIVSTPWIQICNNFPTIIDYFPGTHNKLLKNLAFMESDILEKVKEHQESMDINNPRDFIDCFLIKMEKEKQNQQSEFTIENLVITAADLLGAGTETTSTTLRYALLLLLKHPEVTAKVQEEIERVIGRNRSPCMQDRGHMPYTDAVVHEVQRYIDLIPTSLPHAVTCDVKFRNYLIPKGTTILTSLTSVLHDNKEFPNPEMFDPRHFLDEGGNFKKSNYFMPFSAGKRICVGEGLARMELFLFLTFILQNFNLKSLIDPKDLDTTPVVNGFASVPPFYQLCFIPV
Cytochrome P450 3A4, sequence (P08684 whole entry): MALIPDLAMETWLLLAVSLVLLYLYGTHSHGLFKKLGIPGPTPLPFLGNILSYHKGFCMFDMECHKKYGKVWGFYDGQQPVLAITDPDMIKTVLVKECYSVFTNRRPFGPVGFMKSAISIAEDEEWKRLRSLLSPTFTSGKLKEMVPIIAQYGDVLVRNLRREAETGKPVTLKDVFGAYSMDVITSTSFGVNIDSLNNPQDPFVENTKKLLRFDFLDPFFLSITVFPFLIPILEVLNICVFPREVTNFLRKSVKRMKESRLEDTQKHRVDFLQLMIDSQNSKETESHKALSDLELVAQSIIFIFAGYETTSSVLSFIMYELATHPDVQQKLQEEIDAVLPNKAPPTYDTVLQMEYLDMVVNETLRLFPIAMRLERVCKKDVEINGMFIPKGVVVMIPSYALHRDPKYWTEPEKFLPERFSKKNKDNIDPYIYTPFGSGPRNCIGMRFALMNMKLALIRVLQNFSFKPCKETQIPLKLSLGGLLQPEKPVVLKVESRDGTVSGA
Cytochrome P450 2D6, sequence (P10635 whole entry): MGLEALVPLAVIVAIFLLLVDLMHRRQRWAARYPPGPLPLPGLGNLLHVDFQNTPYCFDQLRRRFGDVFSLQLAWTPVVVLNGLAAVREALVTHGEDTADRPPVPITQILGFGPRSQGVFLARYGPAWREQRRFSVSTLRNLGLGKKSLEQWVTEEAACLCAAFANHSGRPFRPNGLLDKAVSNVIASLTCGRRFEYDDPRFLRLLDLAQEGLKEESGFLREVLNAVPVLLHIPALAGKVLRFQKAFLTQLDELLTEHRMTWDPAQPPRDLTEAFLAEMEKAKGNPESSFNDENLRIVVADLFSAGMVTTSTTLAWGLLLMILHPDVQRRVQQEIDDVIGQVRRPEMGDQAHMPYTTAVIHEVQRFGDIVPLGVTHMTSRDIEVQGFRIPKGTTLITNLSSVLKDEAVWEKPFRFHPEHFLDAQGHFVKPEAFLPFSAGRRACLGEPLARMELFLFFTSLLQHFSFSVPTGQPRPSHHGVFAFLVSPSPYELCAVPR

## COc1ccc(NC(=O)N2CC[C@@]3(CCCN(S(C)(=O)=O)C3)C2)cc1
Cytochrome P450 3A4
  AC50: 39.8 µM (inconclusive)
Cytochrome P450 1A2
  AC50: 25.1 µM (inconclusive)

## Cc1ccc(S(=O)(=O)N(C)CC(=O)NCCCc2ccccc2)cc1
[1]
  EC50: > 53 µM (inactive)

## CCC(=O)n1nc(-c2ccc(OC)cc2)nc1N
Cytochrome P450 2C9
  AC50: 0.0562 µM (inconclusive)

## O=C(Cc1ccc(Cl)c(Cl)c1)OCCN1CCCC1
Cytochrome P450 2D6
  AC50: 31.6 µM (inconclusive)

## CS(=O)(=O)Nc1cccc(-c2cncnc2Nc2ccccc2)c1
Cytochrome P450 2D6
  AC50: 25.1 µM (inconclusive)

## CC(C)NCC[C@@H](O)c1cc2ccccc2o1
Cytochrome P450 2D6
  AC50: 3.16 µM (inconclusive)

## CC(C)OC(=O)CSc1nc(-c2ccc(F)cc2)nc2ccc(F)cc12
Cytochrome P450 2C9
  AC50: 0.0178 µM (inconclusive)
Cytochrome P450 2C19; read-out: AC50
  AC50: 0.112 µM (inconclusive)

## CCCc1cc2c(n1CCc1ccc(Cl)cc1)C(C)C1CN(C(=O)c3ccccc3)C(C)(C(=O)OC)C21 (stereo unspecified)
Cytochrome P450 1A2
  AC50: 25.1 µM (inconclusive)

## Cc1ccc(OCC(=O)Nn2cnc3ccccc32)cc1
Cytochrome P450 2D6
  AC50: 10 µM (inconclusive)

## CN(C)Cc1ccccc1-c1nc(NCc2cccs2)c2ccccc2n1
Cytochrome P450 3A4
  AC50: 6.31 µM (inconclusive)

## Cc1ccc(NCCC(=O)c2ccc(Cl)cc2)cc1C
Cytochrome P450 3A4
  AC50: 3.55 µM (inconclusive)

## Cc1ccc(C(=O)NN2CCOCC2)cc1
Cytochrome P450 2D6
  AC50: 0.224 µM (inconclusive)

## COC(=O)[C@@]1(Cc2ccc(OC)cc2)[C@H]2c3cc(C(=O)N(C)C)n(Cc4ccc(C)c(F)c4F)c3C[C@H]2CN1C(=O)c1ccccc1
Cytochrome P450 2D6
  AC50: 12.6 µM (inconclusive)

## Clc1ccccc1-c1cc(NCc2cccnc2)ncn1
Cytochrome P450 3A4
  AC50: 10 µM (inconclusive)

## CCNc1oc(-c2cccc3ccccc23)nc1C#N
[2]
  CC50: > 50 µM (active)

## CCN(CC)C(=O)CSc1nc2ccc(NC(=O)CSc3nnc(COc4ccccc4C)n3C)cc2s1
Cytochrome P450 2D6
  AC50: 14.1 µM (inconclusive)

## O=C(C1CCCN(c2ncnc3c2nc2n3CCCCC2)C1)N1CCN(c2cccc(Cl)c2)CC1 (stereo unspecified)
[2]
  CC50: 11.7 µM (active)

## CNc1nc(-c2ccccc2OC)nc2ccccc12
Cytochrome P450 3A4
  AC50: 31.6 µM (inconclusive)
Cytochrome P450 2C19
  AC50: inconclusive

## CCOC(=O)c1nc(O)c2c3c(sc2n1)CC(C)CC3 (stereo unspecified)
cells
  IC50: 4.55 µM (active)

## Oc1ccc2c3c1O[C@H]1c4[nH]c5ccccc5c4C[C@]4(O)[C@H](C2)N(CC2CC2)CC[C@@]314
Cytochrome P450 3A4
  AC50: 0.01 µM (inconclusive)

## N=C(NOC(=O)c1ccco1)c1ccccc1
[3]
  EC50: 47.4 µM (active)
H4
  EC50: > 120 µM (not active)

## CCCS(=O)(=O)N1CCCC(C(=O)NCc2cccnc2)C1 (stereo unspecified)
Cytochrome P450 1A2
  AC50: 0.00631 µM (inconclusive)
Cytochrome P450 2C19; read-out: AC50
  AC50: 15.8 µM (inconclusive)

## Cn1c(COc2nnc(-c3ccc(Cl)cc3)c3ccccc23)nc2ccccc21
Cytochrome P450 1A2
  AC50: 14.1 µM (inconclusive)
Cytochrome P450 2C19; read-out: AC50
  AC50: 14.1 µM (inconclusive)

## O=C(Nc1ccc(F)cc1F)c1cc2ccccc2oc1=O
cells
  IC50: 39.7 µM (active)

## NC(=O)COC(=O)c1sc2ccccc2c1Cl
cells
  IC50: 37.6 µM (active)

## Cc1nc(NC(=O)CSc2cc(C)c3ccccc3n2)c(Cl)cc1Cl
[2]
  CC50: > 50 µM (active)

## OC(CNCCc1ccc(Cl)cc1)COc1cc(Cl)ccc1Cl (stereo unspecified)
[2]
  CC50: 15.6 µM (active)

## CCOc1ccc(C(C)=O)cc1N1C(=O)C2C3C=CC(C3=C(C)C)C2C1=O (stereo unspecified)
Cytochrome P450 2C9
  AC50: 5.62 µM (inconclusive)
Cytochrome P450 1A2
  AC50: 0.0631 µM (inconclusive)
Cytochrome P450 2C19; read-out: AC50
  AC50: 25.1 µM (inconclusive)

## CCn1c(-c2ccc(-c3ccccc3)cc2)cnc1S
[2]
  CC50: 18.9 µM (active)

## COc1cccc(-c2ccc3ncnc(N4CCOCC4)c3c2)c1
Cytochrome P450 2D6
  AC50: 31.6 µM (inconclusive)

## CCOc1ccc2[nH]c3ccc4nonc4c3c2c1
[2]
  CC50: > 50 µM (active)

## Cc1cccc(CNc2ncncc2-c2cccc(C#N)c2)c1
Cytochrome P450 2D6
  AC50: 31.6 µM (inconclusive)

## COc1ccc(-c2c(C)c3ccc(O)cc3oc2=O)cc1
[2]
  CC50: 20.9 µM (active)

## COc1ccc(CCNC(=O)c2ccccc2NC(=O)c2ccco2)cc1OC
Cytochrome P450 1A2
  AC50: 22.4 µM (inconclusive)

## CCCn1nnnc1NC(=O)c1ccc(C)cc1Cl
Cytochrome P450 2C9
  AC50: 0.2 µM (inconclusive)
Cytochrome P450 1A2
  AC50: 10 µM (inconclusive)

## CCOC(=O)c1nnn(-c2nc(OC)nc(N3CCCCC3)n2)c1-c1ccccc1
Cytochrome P450 2C9
  AC50: 28.2 µM (inconclusive)
Cytochrome P450 1A2
  AC50: 14.1 µM (inconclusive)

## N#Cc1nc(-c2ccco2)oc1N1CCN(c2cccc(Cl)c2)CC1
[2]
  CC50: 31.8 µM (active)

## COc1ccc(-c2[nH]ncc2CN2CCCCCCC2)c(OC)c1
cells
  IC50: 18.5 µM (active)

## O=[N+]([O-])c1ccccc1CSc1nc(O)c2nc[nH]c2n1
Cytochrome P450 3A4
  AC50: 3.98 µM (inconclusive)

## CCN(CC)C[C@@H](O)CN1CCCCc2nc(C)c(C)cc21
Cytochrome P450 2D6
  AC50: 2.51 µM (inconclusive)

## COc1ccccc1C(=O)N/C(=C/c1ccc(Br)cc1)C(=O)NCC(=O)O
Cytochrome P450 1A2
  AC50: 12.6 µM (inconclusive)

## Cc1ccc(C)c(S(=O)(=O)N2CCC(c3nc(O)c4nnn(Cc5ccc(F)cc5)c4n3)CC2)c1
Cytochrome P450 2D6
  AC50: 14.1 µM (inconclusive)

## O=C(CN1C(=O)c2cccc3cccc(c23)C1=O)N1CCCCCC1
Cytochrome P450 2C9
  AC50: 22.4 µM (inconclusive)

## CCOc1c2ccc(C(=O)NCc3cc(C(F)(F)F)cc(C(F)(F)F)c3)cc2nn1C
Cytochrome P450 2C9
  AC50: 31.6 µM (inconclusive)
Cytochrome P450 1A2
  AC50: 17.8 µM (inconclusive)
Cytochrome P450 2D6
  AC50: 20 µM (inconclusive)

## CCC(=O)Nc1nnc(SCC(=O)c2ccc3c(c2)Cc2ccccc2-3)s1
[2]
  CC50: 42 µM (active)

## CCCCOc1ccc(S(=O)(=O)NNC(=O)C2Cc3c(ccc4ccccc34)O2)cc1 (stereo unspecified)
[2]
  CC50: 27.1 µM (active)

## COc1cccc(Cn2c(=O)c(-c3ccccc3)nc3cnc(N(C)C)nc32)c1
Cytochrome P450 2C9
  AC50: 15.8 µM (inconclusive)
Cytochrome P450 1A2
  AC50: 10 µM (inconclusive)

## CCOC(=O)c1c(C)[nH]c2ccc3c(c12)CN1CCc2cc(OC)ccc2[C@@H]1O3
Cytochrome P450 3A4
  AC50: 2.51 µM (inconclusive)
Cytochrome P450 2C19
  AC50: inconclusive

## O=C(NC(C(=O)N/N=C/c1ccccc1)c1nnc(O)c2ccccc12)c1ccccc1 (stereo unspecified)
[1]
  EC50: 5.14 µM (active)

## CCCCC(=O)NC(Nc1cc(C)ccn1)(C(=O)OCC)C(F)(F)F (stereo unspecified)
Cytochrome P450 1A2
  AC50: 15.8 µM (inconclusive)

## CN(C)C(=O)c1ccc(-c2cc(NCc3ccccc3)ncn2)cc1
Cytochrome P450 1A2
  AC50: 12.6 µM (inconclusive)
Cytochrome P450 2D6
  AC50: 39.8 µM (inconclusive)

## O=C(Nc1ccccc1N1CCOCC1)c1cnccn1
Cytochrome P450 3A4
  AC50: 14.1 µM (inconclusive)
Cytochrome P450 2C19; read-out: AC50
  AC50: 0.0398 µM (inconclusive)

## COc1ccc(CCNc2cc(-c3ccccc3)nc3ncnn23)cc1
cells
  IC50: 2.48 µM (active)

## N#Cc1ccc(OCC(=O)Nc2ccncc2)cc1
[2]
  CC50: 14.7 µM (active)

## OC(COc1ccccc1Cl)CN1CCN(CC(O)COc2ccccc2Cl)CC1 (stereo unspecified)
cells
  IC50: 17.3 µM (active)

## CN(C)c1ccc(/C=C/C(=O)c2ccc(O)cc2)cc1
[1]
  EC50: 5.34 µM (active)

## COC(=O)[C@@]1(Cc2ccc(F)cc2)[C@H]2c3cc(C(=O)N(C)C)n(CC4CC4)c3C[C@H]2CN1C(=O)c1ccccc1
Cytochrome P450 1A2
  AC50: 25.1 µM (inconclusive)

## Brc1c(CSc2nncc3ccccc23)nc2ccccn12
cells
  IC50: 5.43 µM (active)

## O=c1c(-c2cc(F)cc(F)c2)nc2cnc(N3CCOCC3)nc2n1C[C@H]1CCCO1
Cytochrome P450 1A2
  AC50: 2.51 µM (inconclusive)

## COc1cccc(-c2nc(Nc3ccncc3)c3ccccc3n2)c1
Cytochrome P450 2D6
  AC50: 25.1 µM (inconclusive)

## O=C(N/N=C/c1ccc(Br)s1)c1ccncc1
cells
  IC50: < 0.1 µM (active)

## Cn1c2c(c3ccccc31)CC/C2=N\O
[2]
  CC50: 38.5 µM (active)

## COc1ccc(CCNC(=O)c2ccc3c(c2)OCCO3)cc1
H4
  EC50: 66.7 µM (active)

## COc1cc([C@H](O)CO)ccc1O
Cytochrome P450 3A4
  AC50: 0.0316 µM (inconclusive)

## CN1CC(c2ccccn2)C2(SC(=S)N(Cc3ccccc3)C2=O)C12C(=O)Nc1ccccc12 (stereo unspecified)
Cytochrome P450 2D6
  AC50: 28.2 µM (inconclusive)
